Measured values as given in article PMC5458078, “Global mapping of CARM1 substrates defines enzyme specificity and substrate recognition” (Nature Communications, 2017).

Assays:
MCF7 cells = test: Quantitative nanoLC-MS/MS (TMT) of ADMA-containing peptides, CARM1 KO vs parental; type: cell-based, human; parameters: Fold change KO/WT: scale not given here
MCF7 CARM1 KO cells = test: Quantitative MS of ADMA-containing peptides in MCF7 CARM1 KO cells expressing CARM1 28-608 or CARM1 140-608, and in CARM1 KO; type: cell-based, human
[1] = MCF7, CARM1 knockout vs wild type, n = 3 each
[2] = ratio on log2 scale, mean of 3 replicates
[3] = ADMA-containing peptide, MCF7, CARM1 knockout (KO1-3) vs wild type (WT1-3), TMT 6-plex experiment #1
[4] = log2 scale ratio, mean of n = 3
[5] = MCF7, CARM1 KO vs WT, three biological replicates each
[6] = CARM1 140-608 vs WT, mean of 3 replicates, log2
[7] = KO vs WT, mean of 3 replicates, log2
[8] = MCF7 CARM1 knockout vs wild type, 3 biological replicates each, values are on log2 scale
[9] = difference of log2 means, CARM1 140-608 vs WT
[10] = difference of log2 means, KO vs WT
[11] = MCF7, CARM1 KO (KO1-KO3) vs wild type (WT1-WT3)
[12] = CARM1 140-608 vs WT, mean of 3 replicates (log2 scale)
[13] = KO vs WT, mean of 3 replicates (log2 scale)
[14] = ADMA-containing peptide, CARM1 knockout (KO) vs wild type (WT) MCF7 cells, 6-plex TMT experiment #1, three biological replicates each, sheet "MCF7"
[15] = CARM1 140-608 versus WT, mean of three replicates (log2)
[16] = KO versus WT, mean of three replicates (log2)
[17] = CARM1 KO vs wild type MCF7 cells, 3 biological replicates each
[18] = CARM1 140-608 versus WT, difference of mean log2 values
[19] = CARM1 KO versus WT, difference of mean log2 values

SAPrLNTTNAWGAAPPSLGSQPLYR
Fold change KO/WT (MCF7 cells; [1]): -1.593
CARM1 140-608/WT (MCF7 CARM1 KO cells; [2]): -0.6132
KO/WT (MCF7 CARM1 KO cells; [2]): -1.593

NPFLTGLSAPSPTNPFGAGEPGrPTLNQMR
Fold change KO/WT (MCF7 cells; [1]): -3.967
CARM1 140-608/WT (MCF7 CARM1 KO cells; [2]): -2.593
KO/WT (MCF7 CARM1 KO cells; [2]): -3.967

EPLVATNLPGrGQLQK
Fold change KO/WT (MCF7 cells; [3]): -0.7768
CARM1 140-608/WT (MCF7 CARM1 KO cells; [4]): -0.7114
KO/WT (MCF7 CARM1 KO cells; [4]): -0.7768

VREELLrHQLLEK
Fold change KO/WT (MCF7 cells; [5]): -4.282
CARM1 140-608/WT (MCF7 CARM1 KO cells; [6]): -2.55
KO/WT (MCF7 CARM1 KO cells; [7]): -4.282

VSTSGPrAFSSR
Fold change KO/WT (MCF7 cells; [8]): -3.388
CARM1 140-608/WT (MCF7 CARM1 KO cells; [9]): -3.216
KO/WT (MCF7 CARM1 KO cells; [10]): -3.388

RPAQSVNrGGMTR
Fold change KO/WT (MCF7 cells; [5]): 0.2083
CARM1 140-608/WT (MCF7 CARM1 KO cells; [6]): 0.0581
KO/WT (MCF7 CARM1 KO cells; [7]): 0.3659

YRPYDGAASAYAQNYrYPEPERPSSR
Fold change KO/WT (MCF7 cells; [11]): -0.7141
CARM1 140-608/WT (MCF7 CARM1 KO cells; [12]): -1.157
KO/WT (MCF7 CARM1 KO cells; [13]): -0.7141

NELIArYIK
Fold change KO/WT (MCF7 cells; [3]): 0.1085
CARM1 140-608/WT (MCF7 CARM1 KO cells; [4]): -0.332
KO/WT (MCF7 CARM1 KO cells; [4]): -0.02143

GrFPGAVPGGDrFPGPAGPGGPPPPFPGNLIK
Fold change KO/WT (MCF7 cells; [1]): -2.782
CARM1 140-608/WT (MCF7 CARM1 KO cells; [2]): -1.24
KO/WT (MCF7 CARM1 KO cells; [2]): -2.782

LVPrLSVGAVSSKPTTPTIATPQTVSVPNK
Fold change KO/WT (MCF7 cells; [3]): -1.953
CARM1 140-608/WT (MCF7 CARM1 KO cells; [4]): -1.646
KO/WT (MCF7 CARM1 KO cells; [4]): -1.953

SQGAQPQQVTLrLALR
Fold change KO/WT (MCF7 cells; [14]): -1.987
CARM1 140-608/WT (MCF7 CARM1 KO cells; [15]): -1.727
KO/WT (MCF7 CARM1 KO cells; [16]): -1.987

ELSHPPLYrLPLLENAETPQ
Fold change KO/WT (MCF7 cells; [3]): -3.498
CARM1 140-608/WT (MCF7 CARM1 KO cells; [4]): -1.659
KO/WT (MCF7 CARM1 KO cells; [4]): -3.498

TPLLGDGPrAPFNQEGQSTGPPPLIPGLGQQGAQGR
Fold change KO/WT (MCF7 cells; [17]): -4.991
CARM1 140-608/WT (MCF7 CARM1 KO cells; [18]): -4.072
KO/WT (MCF7 CARM1 KO cells; [19]): -5.54

QAPrDGLTPVPPLAPAPrPPSSGLPAVLNPrPTLTPGrLPTPTLGTArAPMPTPTLVrPLLK
Fold change KO/WT (MCF7 cells; [3]): -4.977
CARM1 140-608/WT (MCF7 CARM1 KO cells; [4]): -2.613
KO/WT (MCF7 CARM1 KO cells; [4]): -4.977

SIVPTMHYQDSLPrLPIPK
Fold change KO/WT (MCF7 cells; [1]): -2.513
CARM1 140-608/WT (MCF7 CARM1 KO cells; [2]): -1.626
KO/WT (MCF7 CARM1 KO cells; [2]): -2.513

MGTPVPrPPQDMGQIGVrTPLGPrVAAPVGPVGPTPTVLPMGAPVPrPR
Fold change KO/WT (MCF7 cells; [11]): -2.587
CARM1 140-608/WT (MCF7 CARM1 KO cells; [12]): -1.761
KO/WT (MCF7 CARM1 KO cells; [13]): -2.783

FIQPrPTLNQPPPPLIRPANSMPPR
Fold change KO/WT (MCF7 cells; [11]): -1.409
CARM1 140-608/WT (MCF7 CARM1 KO cells; [12]): 0.5669
KO/WT (MCF7 CARM1 KO cells; [13]): -1.409

RGPLSQNGSFGPSPVSGGECSPPLTVEPPVrPLSATLNR
Fold change KO/WT (MCF7 cells; [14]): -2.59
CARM1 140-608/WT (MCF7 CARM1 KO cells; [9]): -1.692
KO/WT (MCF7 CARM1 KO cells; [10]): -2.59

GPVTPGGLPPrGLLGDAPNDPR
Fold change KO/WT (MCF7 cells; [1]): -1.652
CARM1 140-608/WT (MCF7 CARM1 KO cells; [2]): -1.495
KO/WT (MCF7 CARM1 KO cells; [2]): -1.652

FEGQHNQLGGNLrFEGPHGQPGVGIrFEGPLVQQGGGMrFEGPSVPGGGLR
Fold change KO/WT (MCF7 cells; [14]): -1.477
CARM1 140-608/WT (MCF7 CARM1 KO cells; [15]): 0.6048
KO/WT (MCF7 CARM1 KO cells; [16]): -1.668

rPFGISALIVGFDDDGISR
Fold change KO/WT (MCF7 cells; [11]): -1.577
CARM1 140-608/WT (MCF7 CARM1 KO cells; [15]): -0.5842
KO/WT (MCF7 CARM1 KO cells; [16]): -1.577

LTVPrYSIPTGDPPPYPEIASQLAQGR
Fold change KO/WT (MCF7 cells; [17]): -2.163
CARM1 140-608/WT (MCF7 CARM1 KO cells; [18]): -0.6093
KO/WT (MCF7 CARM1 KO cells; [19]): -2.766

APrSLIPPIPVSPPILAPrLSSGALK
Fold change KO/WT (MCF7 cells; [11]): -1.927
CARM1 140-608/WT (MCF7 CARM1 KO cells; [12]): -0.773
KO/WT (MCF7 CARM1 KO cells; [13]): -1.927

GrGFAGVCGFGGPYGETVATGPYrAFR
Fold change KO/WT (MCF7 cells; [1]): -1.965
CARM1 140-608/WT (MCF7 CARM1 KO cells; [2]): -1.219
KO/WT (MCF7 CARM1 KO cells; [2]): -1.965

SQAPArYSLQSANASSLSSGQLK
Fold change KO/WT (MCF7 cells; [5]): -4.438
CARM1 140-608/WT (MCF7 CARM1 KO cells; [6]): -3.491
KO/WT (MCF7 CARM1 KO cells; [7]): -4.438

IPGIPrHSGPQYSMMQPHLQR
Fold change KO/WT (MCF7 cells; [17]): -0.5283
CARM1 140-608/WT (MCF7 CARM1 KO cells; [18]): 1.323
KO/WT (MCF7 CARM1 KO cells; [19]): -0.1608

FEGGHGPSGAAIrFDGPHGQPGGGIrFEGPLLQQGVGMrFEGPHGQSVAGLR
Fold change KO/WT (MCF7 cells; [14]): -1.343
CARM1 140-608/WT (MCF7 CARM1 KO cells; [15]): -0.8121
KO/WT (MCF7 CARM1 KO cells; [16]): -1.343

VSTSGPrAFSSrSYTSGPGSrISSSSFSR
Fold change KO/WT (MCF7 cells; [8]): -2.338
CARM1 140-608/WT (MCF7 CARM1 KO cells; [9]): -2.338
KO/WT (MCF7 CARM1 KO cells; [10]): -2.338

SAPFFIPTIPGLVPrYAAPEQNNDPQQSK
Fold change KO/WT (MCF7 cells; [17]): -5.228
CARM1 140-608/WT (MCF7 CARM1 KO cells; [18]): -3.554
KO/WT (MCF7 CARM1 KO cells; [19]): -5.228

APESPPSADPALVAGPAEEAECPPPRQPQPAQNVLAAPrLR
Fold change KO/WT (MCF7 cells; [14]): -1.431
CARM1 140-608/WT (MCF7 CARM1 KO cells; [15]): -0.5501
KO/WT (MCF7 CARM1 KO cells; [16]): -1.431

HSAYSYCGrGFYPQYGALETrGGFNPR
Fold change KO/WT (MCF7 cells; [8]): -0.3157
CARM1 140-608/WT (MCF7 CARM1 KO cells; mean, CARM1 140-608 versus WT (log2 scale)): -0.5986
KO/WT (MCF7 CARM1 KO cells; mean, CARM1 KO versus WT (log2 scale)): -0.0486

AFSSrSYTSGPGSrISSSSFSR
Fold change KO/WT (MCF7 cells; [8]): -1.022
CARM1 140-608/WT (MCF7 CARM1 KO cells; [9]): -1.259
KO/WT (MCF7 CARM1 KO cells; [10]): -1.022
